Test results: ChEMBL document CHEMBL1148436, “Structural determinants for high 5-HT(2A) receptor affinity of spiro[9,10-dihydroanthracene]-9,3(')-pyrrolidine (SpAMDA)” (Bioorg Med Chem Lett, 2004)

Key:
[1] = biological target: Sodium-dependent serotonin transporter (Homo sapiens, UniProt P31645); test: Binding affinity towards Serotonin transporter using [3H]paroxetine as radioligand
[2] = biological target: Sodium-dependent noradrenaline transporter (Homo sapiens, UniProt P23975); test: Binding affinity towards Norepinephrine transporter using [3H]nisoxitine as radioligand
[3] = biological target: 5-hydroxytryptamine receptor 2A (Homo sapiens, UniProt P28223); test: Binding affinity towards 5-hydroxytryptamine 2A receptor using [3H]ketanserin
[4] = biological target: T1, 5-hydroxytryptamine receptor 2C (Homo sapiens, UniProt P28335); test: Binding affinity towards 5-hydroxytryptamine 2C receptor using [3H]mesulergine as radioligand
T1 sequence (P28335 whole entry): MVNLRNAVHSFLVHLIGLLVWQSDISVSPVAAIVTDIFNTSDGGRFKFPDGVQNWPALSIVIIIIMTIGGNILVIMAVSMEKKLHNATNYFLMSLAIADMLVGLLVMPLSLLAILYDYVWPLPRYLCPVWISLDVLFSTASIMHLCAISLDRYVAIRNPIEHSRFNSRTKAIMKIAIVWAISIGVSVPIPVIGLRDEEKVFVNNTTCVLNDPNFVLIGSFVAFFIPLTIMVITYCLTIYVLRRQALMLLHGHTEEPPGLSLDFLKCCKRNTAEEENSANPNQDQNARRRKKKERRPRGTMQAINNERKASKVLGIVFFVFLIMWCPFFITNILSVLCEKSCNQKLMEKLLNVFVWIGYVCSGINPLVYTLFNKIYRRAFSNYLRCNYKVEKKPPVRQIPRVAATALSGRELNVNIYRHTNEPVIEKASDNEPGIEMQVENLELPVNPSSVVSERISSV

SMILES	Ki [3]	also measured
c1ccc2c(c1)Cc1ccccc1C21CCNC1		Ki [1]: 3900 nM; Ki [2]: 10000 nM
c1ccc2c(c1)CCc1ccccc1C21CCNC1	110 nM	
c1ccc2c(c1)CCCC21CCNC1 (stereo not drawn)	> 10000 nM	
c1ccc2c(c1)Cc1ccccc1C21CCCNC1	99 nM	
c1ccc(C2(c3ccccc3)CCNC2)cc1	4610 nM	
CN1CCC(=C2c3ccccc3C=Cc3ccccc32)CC1 [CYPROHEPTADINE]		Ki [4]: 11 nM
CN(C)CCCN1c2ccccc2CCc2ccccc21 [IMIPRAMINE]		Ki [4]: 160 nM
